According to patent US20090221559A1 (priority 2005, published 2009):
Read-outs that look alike come from different tables or passages of the source.

How the values were obtained:
[1] = target: T1, HCV NS5B polymerase (His-tagged, C-terminal 21 amino acid deleted NS5B, HC-J4) (Hepatitis C virus genotype 1b, UniProt O92972); test: NS5b polymerase assay (biochemical RdRp assay, 3H-GTP incorporation, SPA beads); parameters: species or system HCV genotype 1b
T1 construct: The cDNA encoding NS5B amino acid 1-570 (HC-J4, genotype 1b); His tag (His6, from pET-21b) (C); made in house; host or cells: E. coli BL21 (DE3)
T1 sequence (O92972 2417-3000, looked up, stated change not applied): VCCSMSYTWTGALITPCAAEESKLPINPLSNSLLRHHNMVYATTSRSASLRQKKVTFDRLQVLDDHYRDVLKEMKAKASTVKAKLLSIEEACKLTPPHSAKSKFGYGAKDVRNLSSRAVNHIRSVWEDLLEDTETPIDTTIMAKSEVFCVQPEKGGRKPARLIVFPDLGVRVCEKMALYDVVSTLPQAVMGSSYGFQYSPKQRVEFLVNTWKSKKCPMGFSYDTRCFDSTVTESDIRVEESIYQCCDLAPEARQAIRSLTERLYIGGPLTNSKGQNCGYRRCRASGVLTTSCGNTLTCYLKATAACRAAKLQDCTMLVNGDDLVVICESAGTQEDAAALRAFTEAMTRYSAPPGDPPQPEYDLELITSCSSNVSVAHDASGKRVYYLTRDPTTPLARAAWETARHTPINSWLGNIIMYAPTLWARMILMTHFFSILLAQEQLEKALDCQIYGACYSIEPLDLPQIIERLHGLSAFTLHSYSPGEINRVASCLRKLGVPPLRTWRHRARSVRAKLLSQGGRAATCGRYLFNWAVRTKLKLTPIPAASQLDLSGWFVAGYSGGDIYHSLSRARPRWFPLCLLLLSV
Experimental: (§1) The compounds of formula (I) were tested for anti-HCV activity in an assay determining their activity against NS5b polymerase and in an HCV replicon assay
The cDNA encoding NS5B amino acid 1-570 (HC-J4, genotype 1b, pCV-J4L6S, genebank accession number AF054247) was subcloned into the Nhe I and Xho I restriction sites of pET-21b. Expression of the subsequent His-tagged C-terminal 21 amino acid deleted NS5B was performed as follows:
Following transformation in BL21 (DE3) competent cells, bacterial cells were grown in 22 liter LB/Amp media until to reach OD600=0.4-0.6. Protein expression was induced by addition of IPTG 0.4 mM, supplemented with 10 μM MgCl2, and incubated for 14-16 hrs at 20° C. Cells were harvested, resuspended in lysis buffer (20 mM Tris-HCl pH=7.5, 0.3 M NaCl, 10% glycerol, 0.1% NP40, 4 mM MgCl2, 14 mM beta-mercaptoethanol, with tablet of EDTA-free protease cocktail inhibitors) and lysed by sonification. The cell lysate was cleared by high-speed centrifugation (20K×g for 30 min), captured on Ni-NTA beads for 70 min at 4° C., and eluted with 25 mM Hepes pH 7.5, 0.5 M NaCl, 10% glycerol, 14 mM BME, 500 mM imidazole. The eluent was dialysed against 25 mM Hepes pH 7.5, 10% glycerol, 50 mM NaCl, 14 mM BME, after which the protein was further purified by heparin chromatography using the same buffer with 1 M NaCl for elution. Fractions containing pure protein were collected, dialyzed against storage buffer 25 mM Hepes pH=7.5, 300 mM NaCl, 10% glycerol, 14 mM BME), and flash-freezed in liquid nitrogen.
Measurement of HCV NS5B polymerization activity was performed by evaluating the amount of radiolabeled GTP incorporated by the enzyme in a newly synthesized RNA using heteropolymeric RNA template/primer. The highthroughput RdRp assay was carried out in 384-well plates using 200 nM enzyme, 0.1 μCi of ^3H GTP, 5 mM MgCl2, 600 nM GTP, 30 nM PolyC, 300 nM 5′-biotinylated oligo(rG13)/poly(rC) in 20 mM Tris pH 7.5, 21 mM KCl, 2.5 mM DTT, 16.7 mM NaCl and 0.17 mM EDTA. Test compounds were dissolved in dimethylsulfoxide. The test compounds were added to the preformed polymerase-template complex, and incubated at room temperature (RT) for 15 min before the addition of NTPs. The 30-μl reaction was terminated after 2 h at 25° C. upon addition of 30-μl PVT-SPA beads (Amersham Biosciences RPNQ0009, 5 mg/ml in 0.5 M EDTA).

[2] = test system: HCV replicon RNA replication in Huh-7 luc/neo (Huh-Luc) cells; test: HCV replicon assay (stable replicon cell reporter assay, luciferase read-out); type: cell-based, HCV type 1b
Experimental: as §1
The compounds of the present invention were examined for activity in the inhibition of HCV RNA replication in a cellular assay. […] The cellular assay was based on a bicistronic expression construct, as described by Lohmann et al. (1999) Science vol. 285 pp. 110-113 with modifications described by Krieger et al. (2001) Journal of Virology 75: 4614-4624, in a multi-target screening strategy. In essence, the method was as follows.
The assay utilized the stably transfected cell line Huh-7 luc/neo (hereafter referred to as Huh-Luc). This cell line harbored an RNA encoding a bicistronic expression construct comprising the wild type NS3-NS5B regions of HCV type 1b translated from an Internal Ribosome Entry Site (IRES) from encephalomyocarditis virus (EMCV), preceded by a reporter portion (FfL-luciferase), and a selectable marker portion (neo^R, neomycine phosphotransferase). The construct was bordered by 5′ and 3′ NTRs (non-translated regions) from HCV type 1b. Continued culture of the replicon cells in the presence of G418 (neo^R) was dependent on the replication of the HCV RNA. The stably transfected replicon cells that expressed HCV RNA, which replicated autonomously and to high levels, encoding inter alia luciferase, were used for screening the antiviral compounds.
The replicon cells were plated in 384 well plates in the presence of the test and control compounds which were added in various concentrations. Following an incubation of three days, HCV replication was measured by assaying luciferase activity (using standard luciferase assay substrates and reagents and a Perkin Elmer ViewLux™ ultraHTS microplate imager). […] The inhibitory activity of the compound on luciferase activity was monitored on the Huh-Luc cells, enabling a dose-response curve for each test compound.

[3] = NS5B Polymerase Assay IC50 (μM)
[4] = 200 nM enzyme, 3H-GTP incorporation, 2 h at 25° C., read-out: NS5B Polymerase Assay IC50
[5] = Huh-Luc cells, three days incubation, luciferase activity, read-out: Replicon Assay EC50
[6] = NS5B Polymerase Assay IC50, 200 nM enzyme, 3H-GTP incorporation, 2 h at 25° C.
[7] = Hepatitis C virus, Huh-7, 72 h, read-out: Replicon Assay EC50, Huh-Luc cells, three days incubation, luciferase activity
[8] = Hepatitis C virus, Huh-7, 72 h, read-out: Replicon Assay EC50 (μM), Huh-Luc cells, incubation of three days, luciferase activity

With `COc1ccc(C2CC(=O)C3=C(C2)Nc2ccccc2NC3c2c(F)cccc2Cl)cc1` (stereo not shown) [compound 334] the IC50 [1, 3] was over 42.7 µM.

Molecule `O=C1CC(c2ccco2)CC2=C1C(c1cccc([N+](=O)[O-])c1)N(C(=O)c1ccccc1)c1ccccc1N2` (stereo not shown) [compound 286] has an IC50 [1, 4] of over 42.7 µM and an EC50 [2, 5] of 19.2 µM.

Molecule `CCCCOc1ccc(C2C3=C(CC(C)(C)CC3=O)Nc3ccccc3N2C(=O)c2ccccc2)cc1` (stereo not shown) [compound 91] has an IC50 [1, 6] of over 42.7 µM and an EC50 [2, 7] of 8.14 µM.

`O=C1C[C@@H](c2ccc3c(c2)OCO3)CC2=C1[C@H](c1cccnc1)Nc1ccccc1N2` [compound 476] showed an IC50 [1, 3] of over 42.7 µM and an EC50 [2, 8] of 22.9 µM.

For `COc1ccc(C2CC(=O)C3=C(C2)Nc2ccccc2N(C(=O)C(F)(F)F)C3c2ccc(Cl)cc2)cc1OC` (stereo not shown) [compound 226], the IC50 [1, 4] was over 33.3 µM and the EC50 [2, 5] was 16.3 µM.

`CCCCC(CC)C(=O)N1c2ccccc2NC2=C(C(=O)CC(C)(C)C2)C1c1ccc(OCCC)c(OC)c1` (stereo not shown) [compound 98] showed an IC50 [1, 6] of over 42.7 µM and an EC50 [2, 7] of 7.33 µM.

`COc1ccc([C@@H]2CC(=O)C3=C(C2)Nc2ccccc2N[C@H]3c2cc3c(cc2[N+](=O)[O-])OCO3)cc1OC` [compound 487] gave an IC50 [1, 3] of over 42.7 µM and an EC50 [2, 8] of 3.15 µM.

In the case of `CCCCCC(=O)N1c2ccccc2NC2=C(C(=O)CC(C)(C)C2)C1c1ccccc1OCc1ccccc1` (stereo not shown) [compound 6], the IC50 [1, 6] is reported as over 42.7 µM and the EC50 [2, 7] is reported as 7.32 µM.

With `CCCCC(=O)N1c2ccccc2NC2=C(C(=O)CC(C)(C)C2)C1c1ccccc1Cl` (stereo not shown) [compound 66] the IC50 [1, 6] was over 42.7 µM and the EC50 [2, 7] was 23 µM.

For `CCC(=O)N1c2ccccc2NC2=C(C(=O)CC(c3ccc(OC)cc3)C2)C1c1ccc(OC)cc1` (stereo not shown) [compound 223], the IC50 [1, 6] was over 42.7 µM and the EC50 [2, 7] was 25 µM.

`CC(=O)N1c2ccccc2NC2=C(C(=O)CCC2)C1c1ccc(Cl)cc1Cl` (stereo not shown) [compound 291, 10-Acetyl-11-(2,4-dichlorophenyl)-2,3,4,5,10,11-hexahydro-1H-dibenzo[b,e][1,4]-diazepin-1-one] gave an IC50 [1, 6] of over 42.7 µM and an EC50 [2, 7] of over 32 µM.

For `CC(=O)N1c2ccccc2NC2=C(C(=O)CC(C)(C)C2)C1c1ccccc1Cl` (stereo not shown) [compound 112], the IC50 [1, 6] was over 42.7 µM and the EC50 [2, 7] was over 32 µM.

`Cc1ccc(C2C3=C(CC(c4ccc(Cl)cc4)CC3=O)Nc3ccccc3N2C(=O)C(F)(F)F)cc1` (stereo not shown) [compound 160] was tested, and the IC50 [1, 4] was over 33.3 µM and the EC50 [2, 5] was over 25 µM.

With `CC1(C)CC(=O)C2=C(C1)Nc1ccccc1NC2c1cc(Cl)cc(Cl)c1` (stereo not shown) [compound 436, 11-[3,5-dichlorophenyl]-3,3-dimethyl-2,3,4,5,10,11-hexahydro-1H-dibenzo[b,e][1,4]diazepin-1-one] the IC50 [1, 3] was over 133 µM and the EC50 [2, 8] was 19.7 µM.

With `COc1ccc(C2C3=C(CC(C)(C)CC3=O)Nc3ccccc3N2C(=O)c2ccc(F)cc2)cc1` (stereo not shown) [compound 33] the IC50 [1, 6] was over 42.6 µM and the EC50 [2, 7] was 24.7 µM.

In the case of `O=C1CC(c2ccco2)CC2=C1C(c1ccco1)N(C(=O)C(F)(F)F)c1ccccc1N2` (stereo not shown) [compound 297], the IC50 [1, 6] is reported as over 42.7 µM and the EC50 [2, 7] is reported as 23.6 µM.

Molecule `CCCCOc1ccc(C2CC(=O)C3=C(C2)Nc2ccccc2N(C(=O)c2ccccc2)C3c2ccccc2)cc1` (stereo not shown) [compound 167] has an IC50 [1, 4] of over 42.7 µM and an EC50 [2, 5] of 3.25 µM.

Work on `CC(=O)N1c2ccccc2NC2=C(C(=O)CC(C)(C)C2)[C@H]1c1ccc(OCc2ccccc2)cc1Cl` (single isomer, unassigned) [compound 305] yielded an IC50 [1, 6] of 0.035 µM and an EC50 [2, 7] of 7.74 µM.

Molecule `CC(=O)N1c2ccccc2NC2=C(C(=O)CC(C)(C)C2)C1c1ccc(N(C)C)cc1` (stereo not shown) [compound 122] has an IC50 [1, 6] of over 42.7 µM and an EC50 [2, 7] of over 32 µM.

For `CC(=O)N1c2ccccc2NC2=C(C(=O)CC(C)(C)C2)C1c1c(F)cccc1Cl` (stereo not shown) [compound 24], the IC50 [1, 6] was over 42.7 µM and the EC50 [2, 7] was 13 µM.

In the case of `Cc1ccc(C2CC(=O)C3=C(C2)Nc2ccccc2N(C(=O)C(F)(F)F)C3c2cccc(Cl)c2)cc1` (stereo not shown) [compound 230], the IC50 [1, 4] is reported as over 33.3 µM and the EC50 [2, 5] is reported as 19.6 µM.

With `CC1(C)CC(=O)C2=C(C1)Nc1ccccc1N(C(=O)NCc1ccccc1)C2c1ccc(Cl)cc1Cl` (stereo not shown) [compound 159] the EC50 [2, 5] was 9.59 µM.

Molecule `CC(=O)N1c2ccccc2NC2=C(C(=O)CC(C)(C)C2)C1c1ccc(OCc2ccccc2)c(Cl)c1` (single isomer, unassigned) [compound 303, 10-acetyl-11-[4-benzyloxy-3-chlorophenyl]-3,3-dimethyl-2,3,4,5,10,11-hexahydro-1H-dibenzo[b,e][1,4]diazepin-1-one] has an IC50 [1, 6] of 31.5 µM.

Molecule `CC(C)C(=O)N1c2ccccc2NC2=C(C(=O)CC(C)(C)C2)C1c1ccc([N+](=O)[O-])s1` (stereo not shown) [compound 239] has an IC50 [1, 6] of over 42.7 µM.

With `COc1ccc(C2CC(=O)C3=C(C2)Nc2ccccc2NC3c2ccccc2OC(C)C)cc1` (stereo not shown) [compound 333] the IC50 [1, 3] was over 42.7 µM.

Molecule `O=C1C[C@@H](c2ccc(Cl)cc2)CC2=C1[C@H](c1cc3c(cc1[N+](=O)[O-])OCO3)Nc1ccccc1N2` [compound 475] has an IC50 [1, 3] of over 42.7 µM.

For `Cc1ccc(C2C3=C(CC(c4cccc(Cl)c4)CC3=O)Nc3ccccc3N2C(=O)C(F)(F)F)cc1` (stereo not shown) [compound 225], the IC50 [1, 4] was over 42.7 µM.

`CCCCCC(=O)N1c2ccccc2NC2=C(C(=O)CC(c3ccco3)C2)C1c1cccc([N+](=O)[O-])c1` (stereo not shown) [compound 290] showed an IC50 [1, 6] of over 42.7 µM.

For `CC1(C)CC(=O)C2=C(C1)Nc1ccccc1N(C(=O)Cc1ccccc1)C2c1ccc(Br)cc1` (stereo not shown) [compound 95], the IC50 [1, 6] was over 33.3 µM.

In the case of `O=C1CC(c2cccc([N+](=O)[O-])c2)CC2=C1C(c1ccc(Cl)cc1)N(C(=O)C(F)(F)F)c1ccccc1N2` (mixture of isomers) [compound 214], the IC50 [1, 4] is reported as over 42.7 µM.

`CC1(C)CC(=O)C2=C(C1)Nc1ccccc1N(C(=O)NCc1ccoc1)C2c1ccc(Cl)cc1Cl` (stereo not shown) [compound 158] gave an EC50 [2, 5] of 31.1 µM.

`COc1ccc(OC)c(C2Nc3ccccc3NC3=C2C(=O)CC(c2ccccc2)C3)c1` (stereo not shown) [compound 351] showed an IC50 [1, 3] of over 42.7 µM.

In the case of `CC1(C)CC(=O)C2=C(C1)Nc1ccccc1N(C(=O)C(F)(F)F)C2/C(Br)=C/c1ccccc1` (stereo not shown) [compound 256], the EC50 [2, 7] is reported as 3.98 µM.

In the case of `COc1ccc(C2C3=C(CC(C)(C)CC3=O)Nc3ccccc3N2C(=O)c2ccccc2)cc1OCc1ccccc1` (stereo not shown) [compound 51], the EC50 [2, 5] is reported as 7.66 µM.

Molecule `CCC(=O)N1c2ccccc2NC2=C(C(=O)CC(c3cccc([N+](=O)[O-])c3)C2)C1c1ccc(Cl)cc1` (mixture of isomers) [compound 211] has an IC50 [1, 4] of over 42.7 µM.

With `O=C1C[C@@H](c2ccc(Cl)cc2)CC2=C1[C@H](c1cc3c(cc1Br)OCO3)Nc1ccccc1N2` [compound 479] the IC50 [1, 3] was over 42.7 µM.

For `CC1(C)CC(=O)C2=C(C1)Nc1ccccc1N(C(=O)c1ccccc1)C2c1ccc(-c2cccc([N+](=O)[O-])c2)o1` (stereo not shown) [compound 272], the IC50 [1, 6] was over 42.7 µM.

Molecule `CC1(C)CC(=O)C2=C(C1)Nc1ccccc1N(C(=O)Cc1ccccc1)C2c1ccc(-c2ccc([N+](=O)[O-])cc2)o1` (stereo not shown) [compound 238] has an IC50 [1, 6] of over 42.7 µM.
